Data taken from patent publication US6599940B2, “Synthesis of 2-hydroxymethylglutamic acid and congeners thereof” (Georgetown University, priority 2000, dated 2003).

Key:
Settings in all cases: result in words, no method or number given
Group 1 mGluRs = assay: Effect on Group 1 mGluRs
mGluR3 = mGluR3 (Homo sapiens, UniProt Q14832); assay: Agonist activity at the Group 2 receptor mGluR3
mGluR2 = mGluR2 (Homo sapiens, UniProt Q14416); assay: Antagonist activity at mGluR2
Group 3 mGluRs = assay: Effect on Group 3 mGluRs

Sequence of mGluR3 (Q14832 23-879): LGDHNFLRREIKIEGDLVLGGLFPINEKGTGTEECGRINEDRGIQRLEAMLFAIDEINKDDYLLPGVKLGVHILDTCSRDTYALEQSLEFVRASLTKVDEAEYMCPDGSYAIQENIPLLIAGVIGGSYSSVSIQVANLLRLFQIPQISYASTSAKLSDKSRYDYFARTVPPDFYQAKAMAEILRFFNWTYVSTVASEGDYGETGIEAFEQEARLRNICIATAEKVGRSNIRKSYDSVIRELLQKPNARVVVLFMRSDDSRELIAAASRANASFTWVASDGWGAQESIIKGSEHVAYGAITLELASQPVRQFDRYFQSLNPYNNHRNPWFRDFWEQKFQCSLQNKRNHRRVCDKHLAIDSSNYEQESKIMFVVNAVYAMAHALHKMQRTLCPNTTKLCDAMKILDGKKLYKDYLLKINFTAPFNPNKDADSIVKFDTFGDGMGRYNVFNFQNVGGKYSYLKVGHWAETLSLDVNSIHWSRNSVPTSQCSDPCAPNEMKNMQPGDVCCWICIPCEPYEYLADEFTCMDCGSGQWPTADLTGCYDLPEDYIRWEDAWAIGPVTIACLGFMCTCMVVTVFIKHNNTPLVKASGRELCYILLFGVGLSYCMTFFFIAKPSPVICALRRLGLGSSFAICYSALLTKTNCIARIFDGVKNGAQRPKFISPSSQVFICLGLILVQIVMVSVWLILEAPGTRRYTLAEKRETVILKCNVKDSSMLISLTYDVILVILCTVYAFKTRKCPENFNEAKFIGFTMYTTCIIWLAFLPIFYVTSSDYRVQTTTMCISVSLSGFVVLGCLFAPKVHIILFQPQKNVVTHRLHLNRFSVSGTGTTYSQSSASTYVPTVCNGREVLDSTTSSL
Sequence of mGluR2 (Q14416 19-872): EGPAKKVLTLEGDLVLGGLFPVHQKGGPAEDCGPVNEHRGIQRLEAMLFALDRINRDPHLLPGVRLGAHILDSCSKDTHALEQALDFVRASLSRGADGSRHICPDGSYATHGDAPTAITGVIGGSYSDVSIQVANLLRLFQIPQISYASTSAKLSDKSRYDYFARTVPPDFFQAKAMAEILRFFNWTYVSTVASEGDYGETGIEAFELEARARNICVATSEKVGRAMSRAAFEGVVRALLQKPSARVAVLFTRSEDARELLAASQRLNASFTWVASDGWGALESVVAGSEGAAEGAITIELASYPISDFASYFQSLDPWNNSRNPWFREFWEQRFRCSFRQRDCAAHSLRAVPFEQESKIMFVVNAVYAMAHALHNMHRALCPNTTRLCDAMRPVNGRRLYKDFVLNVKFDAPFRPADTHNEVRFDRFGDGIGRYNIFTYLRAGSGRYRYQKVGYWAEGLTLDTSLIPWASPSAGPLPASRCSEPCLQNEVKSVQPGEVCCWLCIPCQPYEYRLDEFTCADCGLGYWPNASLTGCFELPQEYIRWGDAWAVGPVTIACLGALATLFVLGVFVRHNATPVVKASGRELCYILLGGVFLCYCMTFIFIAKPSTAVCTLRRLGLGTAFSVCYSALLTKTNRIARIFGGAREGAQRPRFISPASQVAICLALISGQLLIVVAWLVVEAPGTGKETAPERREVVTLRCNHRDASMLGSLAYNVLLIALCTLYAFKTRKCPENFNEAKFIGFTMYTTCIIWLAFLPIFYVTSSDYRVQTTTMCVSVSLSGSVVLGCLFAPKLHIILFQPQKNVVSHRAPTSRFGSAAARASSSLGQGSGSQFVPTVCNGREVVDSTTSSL

N[C@@](CO)(CCC(=O)O)C(=O)O [Compound 1, (R)-2(Hydroxymethyl)glutamic acid] was tested, and the “effect on the Group 1 mGluRs” value (Group 1 mGluRs) was “little or no effect”, the “activity at the Group 2 receptor mGluR3” value (mGluR3) was “relatively potent agonist” and the “activity at mGluR2” value (mGluR2) was “weak antagonist”. The “effect on the Group 3 mGluRs” value (Group 3 mGluRs) was “little or no effect”.
